Drawing on patent publication US6090820A, “Spirocyclic and bicyclic diazinyl and carbazinyl oxazolidinones” (Pharmacia & Upjohn Company, priority 1997, dated 2000), this text covers MIC for 4 compounds.

Values after ≈ are worked out from the molar mass of the structure shown. Like-named read-outs stand apart in the source and are kept apart here.

In one assay the test system is S. aureus UC ® 9213. The assay is described as follows: MIC by agar dilution, S. aureus UC 9213. The settings on record: Staphylococcus aureus. The class given is cell-based. The source says:
(§1) The oxazolidinone antibacterial agents of this invention have useful activity against a variety of organisms. The in vitro activity of compounds of this invention can be assessed by standard testing procedures such as the determination of minimum inhibitory concentration (MIC) by agar dilution as described in "Methods for Dilution Antimicrobial Susceptibility Tests for Bacteria That Grow Aerobically" (MFT) published January 1983 by the National Committee for Clinical Laboratory Standards, 771 East Lancaster Avenue, Villanova, Pa. 19084, USA. The activity of selected compounds of this invention against Staphylococcus aureus and Streptococcus pneumoniae are shown in Table 1.

The subject of another assay is S. pneumoniae UC® 9912. The assay is described as follows: MIC by agar dilution, S. pneumoniae UC 9912. The settings on record: Streptococcus pneumoniae. The class given is cell-based.
Text: as §1

Setting [1] is: UC9213, S. aureus UC 9213, in vitro, agar dilution, read-out: Minimum Inhibitory Concentration.
The mark [2] stands for this setting: UC9912, S. pneumoniae UC 9912, in vitro, agar dilution, read-out: Minimum Inhibitory Concentration.

Regarding `CC(=O)NC[C@H]1CN(c2ccc(N3C[C@H]4CN(C(=O)OCc5ccccc5)C[C@H]4C3)c(F)c2)C(=O)O1` [Example 1, (S)-N-[[3-[4-[cis-3-(carbobenzyloxy)-3,7-diazabicyclo[3.3.0]octan-7-yl]-3-fluorophenyl]-2-oxo-5-oxazolidinyl]methyl]acetamide], the figures for the MIC in the assay on S. aureus UC ® 9213 (setting [1]) and in the assay with S. pneumoniae UC® 9912 (setting [2]) were 4 µg/mL (≈ 8.06 µM) and 2 µg/mL (≈ 4.03 µM), respectively.
For `CC(=O)NC[C@H]1CN(c2ccc(N3C[C@H]4CN(C(=O)COCc5ccccc5)C[C@H]4C3)c(F)c2)C(=O)O1` [Example 2, (S)-N-[[3-[3-fluoro4-[cis-3-(benzyloxyacetyl)-3,7-diazabicyclo[3.3.0]octan-7-yl]phenyl]-2-oxo-5-oxazolidinyl]methyl]acetamide], in that order: 8 µg/mL (≈ 15.7 µM) and 1 µg/mL (≈ 1.96 µM).
The matching figures for `CC(=O)NC[C@H]1CN(c2ccc(N3C[C@H]4CN(C(=O)CO)C[C@H]4C3)c(F)c2)C(=O)O1` [Example 3, (S)-N-[[3-[3-fluoro4-[cis-3-(hydroxyacetyl)-3,7-diazabicyclo[3.3.0]octan-7-yl]phenyl]-2-oxo-5-oxazolidinyl]methyl]acetamide]: 4 µg/mL (≈ 9.51 µM) and below 0.5 µg/mL.
Consider `CN[C@H](CC(C)C)C(=O)N[C@H]1C(=O)N[C@@H](CC(N)=O)C(=O)N[C@H]2C(=O)N[C@H]3C(=O)N[C@H](C(=O)N[C@H](C(=O)O)c4cc(O)cc(O)c4-c4cc3ccc4O)[C@H](O)c3ccc(c(Cl)c3)Oc3cc2cc(c3O[C@@H]2O[C@H](CO)[C@@H](O)[C@H](O)[C@H]2O[C@H]2C[C@](C)(N)[C@H](O)[C@H](C)O2)Oc2ccc(cc2Cl)[C@H]1O` [vancomycin, reference compound], for which the MIC with S. aureus UC ® 9213 (UC9213, read-out: Minimum Inhibitory Concentration) came out at 1 µg/mL (≈ 0.69 µM); in the assay on S. pneumoniae UC® 9912 (UC9912, read-out: Minimum Inhibitory Concentration) it was 0.5 µg/mL (≈ 0.345 µM).
